# Experimental data published in the supplement of paper PMC11451515.
# Tested on: P12-Ichikawa
# Assay: cell viability relative to DMSO control; higher = less cytotoxic
# Conditions: 48 h
# Outline: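 NOMO1 or SEM (500 cells/well) or P12-Ichikawa (1000 cells/well) leukemia cells were adapted for at least four passages in each medium. They were seeded in 1536-well plates (5 μl) and pin-dosed with library compounds in DMSO over an 11-point threefold series, 47 μM to 0.79 nM. CellTiter-Glo One luminescence was read after 48 h at 37°C. Viability is the per-plate percentage relative to DMSO wells, with cell-free wells as background.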
# [1] = HPLM + 10% dialyzed FBS, 0.000781 µM
# [2] = HPLM + 10% dialyzed FBS, 0.00234 µM
# [3] = HPLM + 10% dialyzed FBS, 0.00702 µM
# [4] = HPLM + 10% dialyzed FBS, 0.0211 µM
# [5] = HPLM + 10% dialyzed FBS, 0.0632 µM
# [6] = HPLM + 10% dialyzed FBS, 0.19 µM
# [7] = HPLM + 10% dialyzed FBS, 0.569 µM
# [8] = HPLM + 10% dialyzed FBS, 1.71 µM
# [9] = HPLM + 10% dialyzed FBS, 5.12 µM
# [10] = HPLM + 10% dialyzed FBS, 15.4 µM
# [11] = HPLM + 10% dialyzed FBS, 46.1 µM
# [12] = RPMI 5 mM glucose + 10% FBS, 0.000781 µM
# [13] = RPMI 5 mM glucose + 10% FBS, 0.00234 µM
# [14] = RPMI 5 mM glucose + 10% FBS, 0.00702 µM
# [15] = RPMI 5 mM glucose + 10% FBS, 0.0211 µM
# [16] = RPMI 5 mM glucose + 10% FBS, 0.0632 µM
# [17] = RPMI 5 mM glucose + 10% FBS, 0.19 µM
# [18] = RPMI 5 mM glucose + 10% FBS, 0.569 µM
# [19] = RPMI 5 mM glucose + 10% FBS, 1.71 µM
# [20] = RPMI 5 mM glucose + 10% FBS, 5.12 µM
# [21] = RPMI 5 mM glucose + 10% FBS, 15.4 µM
# [22] = RPMI 5 mM glucose + 10% FBS, 46.1 µM
# [23] = RPMI 5 mM glucose + 10% dialyzed FBS, 0.000781 µM
# [24] = RPMI 5 mM glucose + 10% dialyzed FBS, 0.00234 µM
# [25] = RPMI 5 mM glucose + 10% dialyzed FBS, 0.00702 µM
# [26] = RPMI 5 mM glucose + 10% dialyzed FBS, 0.0211 µM
# [27] = RPMI 5 mM glucose + 10% dialyzed FBS, 0.0632 µM
# [28] = RPMI 5 mM glucose + 10% dialyzed FBS, 0.19 µM
# [29] = RPMI 5 mM glucose + 10% dialyzed FBS, 0.569 µM
# [30] = RPMI 5 mM glucose + 10% dialyzed FBS, 1.71 µM
# [31] = RPMI 5 mM glucose + 10% dialyzed FBS, 5.12 µM
# [32] = RPMI 5 mM glucose + 10% dialyzed FBS, 15.4 µM
# [33] = RPMI 5 mM glucose + 10% dialyzed FBS, 46.1 µM
SMILES,cell viability [1] [%],cell viability [2] [%],cell viability [3] [%],cell viability [4] [%],cell viability [5] [%],cell viability [6] [%],cell viability [7] [%],cell viability [8] [%],cell viability [9] [%],cell viability [10] [%],cell viability [11] [%],cell viability [12] [%],cell viability [13] [%],cell viability [14] [%],cell viability [15] [%],cell viability [16] [%],cell viability [17] [%],cell viability [18] [%],cell viability [19] [%],cell viability [20] [%],cell viability [21] [%],cell viability [22] [%],cell viability [23] [%],cell viability [24] [%],cell viability [25] [%],cell viability [26] [%],cell viability [27] [%],cell viability [28] [%],cell viability [29] [%],cell viability [30] [%],cell viability [31] [%],cell viability [32] [%],cell viability [33] [%]
CC(C)(C)[C@H](NC(=O)c1ccc(N)c(Cl)c1)C(=O)N1CCC[C@H]1C(=O)N[C@H](C#N)CC(=O)O,121,126,123,127,131,127,130,126,32.8,14.4,10.8,116,124,130,133,126,139,133,133,49.9,22.6,15.5,108,123,121,133,131,130,133,127,102,52.1,16.7
NC(=O)Nc1cc(-c2cccc(F)c2)sc1C(=O)N[C@H]1CCCNC1,121,124,125,122,130,112,111,74,13.4,7.94,6.66,,,,,,,,,,,,,,,,,,,,,,
C=CCc1ccc(O)c(-c2ccc(O)c(CC=C)c2)c1,112,113,,113,119,28.9,13.7,,9.66,11.3,18.2,109,110,110,113,120,120,118,17.5,14.9,13.7,11,105,116,113,115,122,113,63.9,25.6,18.4,21.3,21.2
Cn1cc(C[C@@H](N)C(=O)O)c2ccccc21,103,109,106,104,105,109,105,102,100,98.2,97.2,98.8,107,104,101,99.6,106,107,97.1,99.8,100,87.1,91.3,101,100,98.3,105,106,96.5,100,95.8,93,91.9
NC(=O)c1ncn([C@@H]2O[C@H](CO)[C@@H](O)[C@H]2O)c1O,,,,,,,,,,,,129,123,119,130,124,126,133,123,111,117,108,118,126,113,123,122,121,123,122,109,110,104
Cc1c(C)c2c(c(C)c1O)CCC(C)(COc1ccc(CC3SC(=O)NC3=O)cc1)O2 (configuration not stated),112,127,121,126,126,127,131,136,129,118,109,,,,,,,,,,,,,,,,,,,,,,
O=C(Nc1cccnn1)N1CCC(=Cc2cccc(Oc3ccc(C(F)(F)F)cn3)c2)CC1,92.9,94.1,91.4,11.9,106,103,101,101,102,94.4,87.4,85,86.8,96,12.6,101,103,99.7,103,95.7,80.3,76.8,92,93.9,101,47.1,110,100,102,105,101,90.3,81.5
CCOC1=CC=CC=C1N\2C(=O)C3=C(C=CC=C3)\N=C2C(C)N4CCN(CC4)C(=O)COC5=CC=C(Cl)C=C5 (configuration not stated),121,120,116,115,107,111,72.3,15.9,8.63,6.31,4.74,121,126,119,110,117,111,94.4,51.8,9.87,5.31,4.69,,,,,,,,,,,
NC(=O)NO,85.4,102,100,100,94.3,99.6,102,104,72.4,28.8,2.02,83.7,103,91.4,90.8,98.7,98.5,91.2,90.9,77.1,43.6,0.136,88.4,88.3,87.7,91.4,92.2,96,94.1,87.2,65.2,22.9,2.61
Cc1noc(-c2ccc(CSCCC(=O)O)cc2)c1NC(=O)OC(C)c1ccccc1Cl (configuration not stated),98.3,99.3,97.1,102,95.4,101,101,107,99,88.6,70.2,88.3,89.1,80.9,87.4,86.4,95.7,97.3,94.7,93.1,87.3,85.3,90.3,90,91.7,96.7,91.6,102,84.8,89.1,97.9,89.3,79.5
CC[C@]1(O)C[C@@H]2CN(CCc3c([nH]c4ccccc34)[C@@](C(=O)OC)(c3cc4c(cc3OC)N(C)[C@H]3[C@@](O)(C(N)=O)[C@H](O)[C@]5(CC)C=CCN6CC[C@]43[C@@H]65)C2)C1,112,109,112,97.5,78.4,18.3,20.5,14.2,7.56,7.86,9.96,109,115,115,98.6,65.8,16.7,22.7,14,8.37,6.73,6.12,111,103,106,104,101,34.3,22.8,29.1,13.8,10.1,11.5
COc1cc(C(=O)NS(=O)(=O)c2ccccc2C)ccc1Cc1cn(C)c2ccc(NC(=O)OC3CCCC3)cc12,73.2,81.6,85.9,90.7,89.8,86.6,86.5,89.1,88.8,104,72.3,82.7,78.3,79.2,88.1,77.8,83.6,84.4,85,90.1,87,5.73,76.9,74,76.6,81.6,83.8,78.3,89.6,82.3,92.5,87.4,44.2
CC(C)[C@H](N)C(=O)OCCOC[N]1C=NC2=C1\N=C(N)/NC2=O,124,124,121,125,128,126,131,131,123,123,119,123,135,122,121,128,150,146,152,140,132,146,,,,,,,,,,,
CN(C)C1=C(Br)C=C(C=C1)C\2NC3=C(\C4=C2C(=O)CC(C)(C)C4)C5=CC=CC=C5C=C3 (configuration not stated),116,96.7,118,116,116,113,106,108,107,103,108,112,115,116,104,111,100,109,101,105,102,107,112,111,110,113,117,109,102,111,101,97,104
CC(NCCc1ccc(O)cc1)C(O)c1ccc(O)cc1 (configuration not stated),106,109,116,113,117,112,111,103,109,106,100,114,120,122,115,110,114,125,116,120,99,111,107,105,113,109,115,111,107,105,102,97,90.6
CCOC(=O)Nc1ccc(NCc2ccc(F)cc2)nc1N,114,114,110,113,120,117,109,105,96.5,94.6,107,107,116,116,125,118,111,110,102,91,108,99.8,115,101,101,104,111,111,112,103,104,101,100
OC1=CC2=C(C(=C1)O)C(=O)\C(=C(/O2)C3=CC(=C(O)C=C3)O)O,98.8,99.2,108,113,112,111,107,110,116,102,79.3,93.8,107,103,103,109,105,110,101,107,101,85.9,107,108,113,103,117,100,117,108,118,109,73.2
